These results are taken from patent US11786609B2, “Lipid compound as well as lipid vector, nucleic acid lipid nanoparticle composition, and pharmaceutical preparation comprising the same” (PURECODON (HONG KONG) BIOPHARMA LIMITED, priority 2021, dated 2023).

Each structure is given as a SMILES string.

The nature of data set [1]: Particle size, PDI and encapsulation efficiency of LNP@mRNA. Format: physicochemical. The note with it: Example 26: LNP@mRNA of compound, cholesterol, DOPE, PEG-DMG 35:46.5:16:2.5; luciferase mRNA. The procedure: (§1) Compounds 1, 2, 17, 27 or 33 was each dissolved in the first solution with cholesterol, DOPE and PEG-DMG in a molar ratio of 35:46.5:16:2.5, and luciferase mRNA was dissolved in the second solution. […] Microfluidics was utilized to quickly mix the two phases, and dialysis or tangential flow was utilized to replace the buffer environment with PBS (pH 7.4) and thus remove ethanol, so as to prepare and afford five kinds of LNP@mRNAs, respectively.
Microfluidics was utilized to quickly mix the two phases, and dialysis or tangential flow was utilized to replace the buffer environment with PBS (pH 7.4) and thus remove ethanol, so as to prepare and afford LNP@mRNA.
The particle size, PDI and encapsulation efficiency of each of the above-mentioned LNP@mRNAs were determined, and the results were successively shown in Table 3.

Assay in data set [2]: as above
Format: physicochemical. Particulars: Example 26 LNP@mRNA, summary of Table 1.

Data set [3] has as its system mice. The experiment in a line: Organ distribution of mRNA expression in mice after intravenous (tail vein) injection of LNP@mRNA. The class given is in vivo. The note with it: 6 hours after intravenous (tail vein) injection, anatomical image. The method, then: as §1
(§2) The prepared LNP@mRNAs were each injected into mice via tail vein or muscle, and the fluorescence intensities and organ distribution in mice were determined 6 hours later.

Data set [4] deals with mice. Put plainly: Fluorescence intensity in mice after intramuscular injection of LNP@mRNA (luciferase mRNA). Format: in vivo. The note with it: for maximum fluorescence intensity: intramuscular injection of LNP@mRNA (compound and other three lipids), FIG. 7. The procedure: as §1, §2
The prepared mRNA@LNPs were each injected into mice via intramuscular injection, and the fluorescence intensities and organ distribution in mice were determined 6 hours later.

Turning to `CCCCCCCCC(CCCCCC)C(=O)OCCN(CCCN(C)CCCN(CCOC(=O)C(CCCCCC)CCCCCCCC)CCOC(=O)C(CCCCCC)CCCCCCCC)CCOC(=O)C(CCCCCC)CCCCCCCC` (centres unmarked) [Compound 1], in data set [1], the Encapsulation efficiency is 96%, the PDI is on record as 0.14 and the Particle size came out at 95 nm. Moreover, in data set [2], the “encapsulation efficiency (in words)” value is “relatively high encapsulation efficiency” and the “particle size (in words)” value is recorded as “relatively small particle size”.

As to `CCCCCCC(CCCC)C(=O)OCCN(CCCN(C)CCCN(CCOC(=O)C(CCCC)CCCCCC)CCOC(=O)C(CCCC)CCCCCC)CCOC(=O)C(CCCC)CCCCCC` (centres unmarked) [Compound 2], in the data set with mice [3], the “mRNA expression in liver” value is “few mRNA was expressed in liver” and the “mRNA expression in spleen” value is recorded as “mainly expressed in spleen”. In data set [1], this compound registered an Encapsulation efficiency of 86%, a PDI of 0.20 and a Particle size of 84 nm. In data set [2], the “encapsulation efficiency (in words)” value is “relatively high encapsulation efficiency” and the “particle size (in words)” value is listed as “relatively small particle size”.

Turning to `CCCCCCCCC(CCCCCC)C(=O)OCCCCCCN(CCCCCCOC(=O)C(CCCCCC)CCCCCCCC)CCCN(C)CCCN(CCCCCCOC(=O)C(CCCCCC)CCCCCCCC)CCCCCCOC(=O)C(CCCCCC)CCCCCCCC` (centres unmarked) [Compound 17], in data set [1], the Encapsulation efficiency is recorded as 96%, the PDI is 0.19 and the Particle size is given as 184 nm. In data set [2], the “encapsulation efficiency (in words)” value is given as “relatively high encapsulation efficiency”.

Consider `CCCCCCC(CCCC)C(=O)OCCCCCCN(CCCCCCOC(=O)C(CCCC)CCCCCC)CCCN(C)CCCN(CCCCCCOC(=O)C(CCCC)CCCCCC)CCCCCCOC(=O)C(CCCC)CCCCCC` (centres unmarked) [Compound 27], for which the maximum fluorescence intensity with mice [4] is 3.39*10^5. In addition, in the data set with mice [3], the “mRNA expression in liver” value was “few mRNA was expressed in liver” and the “mRNA expression in spleen” value is on record as “mainly expressed in spleen”. In data set [1], this compound yielded an Encapsulation efficiency of 57%, a PDI of 0.21 and a Particle size of 90 nm. Moreover, the “particle size (in words)” value in data set [2] was “relatively small particle size”.

As to `CCCCCCC(CCCC)C(=O)OCCCCOC(=O)CCN(CCCN(C)CCCN(CCC(=O)OCCCCOC(=O)C(CCCC)CCCCCC)CCC(=O)OCCCCOC(=O)C(CCCC)CCCCCC)CCC(=O)OCCCCOC(=O)C(CCCC)CCCCCC` (centres unmarked) [Compound 33], in the data set on mice [4], the maximum fluorescence intensity is recorded as 1.59*10^7. The “expression relative to LNP@mRNA prepared by Compound 27” value in the data set on mice [4] (intramuscular injection, ratio of maximum fluorescence intensities) is 46.9 times. In addition, in the data set on mice [3], the “mRNA expression in liver” value is “mainly expressed in liver” and the “mRNA expression in spleen” value is “some mRNA was expressed in spleen”. In data set [1], this compound displayed an Encapsulation efficiency of 96%, a PDI of 0.11 and a Particle size of 86 nm. In addition, in data set [2], the “encapsulation efficiency (in words)” value was “relatively high encapsulation efficiency” and the “particle size (in words)” value is on record as “relatively small particle size”.
